The source of these data is patent US20250066480A1, “METHODS TO ENHANCE EFFICACY OF COMBINED TARGETING OF IMMUNE CHECKPOINT AND MAPK PATHWAYS” (THE REGENTS OF THE UNIVERSITY OF CALIFORNIA, priority 2021, published 2025).

One assay has as its system NRAS^MUT melanoma. The following applies: patients with NRAS^MUT melanoma; cited from earlier work.
The subject of assay [1] is intratumoral T-cell clonotypes (YUMM1.7ER metastases). In words: Bulk tumor TCR-seq of tumor-involved brain and ovarian tissues. In kind it is in vivo, mouse. As to conditions: on d3; FIG. 6B.
Method: Total RNA was extracted from frozen tissue stored in RNALater using the QIAGEN All Prep DNA/RNA Mini Kit. RNA quality was measured using Bioanalyzer (Agilent). 710 ng-1,000 ng of RNA from ovary and brain tissues (RNA Integrity Number (RIN) score >7) was used as input to construct libraries with the QIAGEN QIAseq Immune Repertoire RNA Library Kit—T cell Receptor Panel (Qiagen). Briefly, RNA was reverse transcribed using a pool of TCR gene-specific primers against the constant region for the T cell receptor alpha, beta, gamma, and delta genes. The resulting cDNA was then ligated to an oligo containing one side of sample index and unique molecular index (UMI). […] The dual-indexed sample PCR fragment was purified and then quantified for absolute quantification of amplifiable libraries (DNA with adaptors at both ends) in triplicate by real-time qPCR using QIAGEN QIAseq Library Quant Array Kit. […] 12 μM of denatured library pool was run with QIAseq A Read1 Primer on Illumina NextSeq 500 Mid Output Kit using v2.5 chemistry for 300 cycles with an asymmetrical paired end 261/41 bp read for CDR3 region.
As reported previously (10), raw reads were submitted to the QIAGEN GeneGlobe Data Analysis Center (qiagen.com/us/shop/genes-and-pathways/data-analysis-center-overview-page/) to estimate the abundance of reads of unique CDR3 sequence and generate TCR clonotype calls. […]
The test system of assay [2] is YUMM1.7ER-luc (Braf^V600E melanoma) intracranial and extracranial metastases. In words: Experimental metastasis of syngeneic melanoma (intracardiac injection, BLI, survival). As to conditions: MEKi monotherapy from d0.
Method: YUMM1.7ER melanoma cells were engineered to express firefly luciferase (YUMM1.7ER-luc). Before every IC injection, cells were selected for stable luciferase expression by blasticidin treatment, yielding cells (1 million) that emitted luciferase light units of 5e8 to 5e9 in vitro. C57BL/6 (6-8 weeks old, female), after anesthesia with vaporized isoflurane (2.0-2.5%), were injected with 1×10^6 cells/mouse into the left ventricle for intracardiac inoculation. Progression of metastatic tumor burden and treatment effects in mice were monitored in vivo and ex vivo by bioluminescent imaging (BLI). We acquired BLI on both ventral and dorsal sides twice weekly until study endpoints (total ventral or dorsal BLI signal in the range of 1e9-1e10, moribund, or death). Mice were anesthetized with vaporized isoflurane; D-luciferin (150 mg luciferin/kg, Caliper Life Sciences) dosed by intraperitoneal injections; and, 10 minutes after injections, luciferase activities were measured with IVIS Lumina II Imaging System (PerkinElmer). Image analysis was performed with Living Image 4.7.2 Version (PerkinElmer). For ex vivo BLI, mice were euthanized 10 minutes after intraperitoneal injection of D-luciferin by cervical dislocation and organs were excised and imaged ex vivo by the IVIS system. […]

On to `Cn1cnc2c(F)c(Nc3ccc(Br)cc3F)c(C(=O)NOCCO)cc21` [binimetinib], for which the “Clinical benefit (median PFS, confirmed overall response, median duration of objective response) in association with prior ICT” value in the assay with NRAS^MUT melanoma is “greater clinical benefit”.

`CC(=O)Nc1cccc(-n2c(=O)n(C3CC3)c(=O)c3c(Nc4ccc(I)cc4F)n(C)c(=O)c(C)c32)c1` [Trametinib, trametinib]: in assay [1], the “Fraction of overlapping TCR clones between two distinct regions of tumor-involved brain tissues” value was 6.17-9.77%. Also, the “Delay of MBM” value in assay [2] is around 1.5 weeks.
